Experimental data: article PMC6151521, “Characterization of the Ornithine Hydroxylation Step in Albachelin Biosynthesis” (Molecules : A Journal of Synthetic Chemistry and Natural …, 2017)

Test system: T1, albachelin monooxygenase (AMO)
T1 construct: expressed in E. coli (pVP56K) as 8xHis-MBP fusion, tag removed with TEV protease; MW 49 kDa
Assay: oxygen consumption (Oxygraph)
Type: biochemical, Amycolatopsis alba
Conditions: holo-AMO, 100 mM sodium phosphate pH 7.5
From the text: oxygen consumption (Oxygraph) on albachelin monooxygenase (AMO)

Row | Km (10 mM Orn) [µM] | Km (5 mM NADPH) [µM] | SMILES
1 | 320 ± 100 | – | NC(=O)C1=CN([C@@H]2O[C@H](COP(=O)(O)OP(=O)(O)OC[C@H]3O[C@@H](n4cnc5c(N)ncnc54)[C@H](O)[C@@H]3O)[C@@H](O)[C@H]2O)C=CC1 [NADH]
2 | – | 305 ± 108 | NCCC[C@H](N)C(=O)O [Orn]
3 | 1400 ± 160 | – | NC(=O)C1=CN([C@@H]2O[C@H](COP(=O)(O)OP(=O)(O)OC[C@H]3O[C@@H](n4cnc5c(N)ncnc54)[C@H](OP(=O)(O)O)[C@@H]3O)[C@@H](O)[C@H]2O)C=CC1 [NADPH]
